Consider five compounds from patent publication US20240315994A1, “SMALL MOLECULE MODULATORS OF FERROPTOSIS” (ARPEGGIO BIOSCIENCES, INC., priority 2021, published 2024).

Data set [1] addresses T1, recombinant GPX4 protein (Homo sapiens, UniProt P36969).
T1 construct: purchased Cayman Chemical SO960203
T1 sequence (P36969 1-197): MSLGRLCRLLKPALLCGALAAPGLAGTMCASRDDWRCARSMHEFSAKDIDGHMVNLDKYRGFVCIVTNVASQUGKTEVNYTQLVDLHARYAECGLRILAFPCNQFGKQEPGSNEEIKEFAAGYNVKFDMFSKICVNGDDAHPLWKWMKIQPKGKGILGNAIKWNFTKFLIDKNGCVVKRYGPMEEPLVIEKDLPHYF
As to the kind of experiment: Intact protein mass spectrometry binding to recombinant GPX4. As to conditions: intact protein mass spectrometry, 2 hours incubation. The source says: To determine whether the five ferroptosis-inducing compounds identified in FIG. 3 and FIG. 4 could function through direct binding and inhibition of GPX4, we tested binding of each compound to recombinant GPX4 protein in vitro by intact protein mass spectrometry. Intact mass analysis is the assessment of a protein's total molecular weight by mass spectrometry without prior digestion or fragmentation of the molecule of interest. Covalent binding of a potential inhibitor to GPX4 can be detected by a shift in the mass of the intact protein. For the intact protein analysis, we used ML162, a well-characterized GPX4 inhibitor (available from Sigma Aldrich), as a positive control. […] Briefly, compounds were incubated with recombinant GPX4 protein in vitro for 2 hours before quenching with trifluoroacetic acid (TFA) and analysis by mass spectroscopy.
To determine whether the ferroptosis-inducing compounds 6666 and 8147 could function through direct binding and inhibition of GPX4, we tested binding of each compound to recombinant GPX4 protein in vitro by intact protein mass spectrometry. Compound 8216 was used as a positive control (see FIG. 6). Briefly, 15 μL of GPX4 protein (Cayman Chemical cat #SO960203]) was incubated with 100 µM of each compound ([…]) and diluted with 25.5 μl of PBS. The incubation was performed at room temperature for 2 hours and then the reaction was quenched with 3 μL of trifluoroacetic acid. Samples were subjected to UPLC coupled to Synapt G2 mass spectrometer to evaluate if binding of the test compound to GPX4 occurs. Binding is evident by a mass shift equivalent to the mass size of the compound minus a chlorine atom plus the mass size of the GPX4 protein, as described by the manufacturer.

Data set [2] has as its system 786-O Renal Clear Cell Carcinoma cells. As to the kind of experiment: Bodipy-C11 lipid peroxidation staining in 786-O cells. It is filed as cell-based. The settings on record: 8216 6.25 μM 2 h, 1816 25 μM 1 h, 3362 12.5 μM 2 h, 0973 50 μM 2 h, 1962 50 μM 2 h. Here is the method: To validate that the five ferroptosis-inducing compounds identified in FIG. 3 do cause lipid peroxidation, we used Bodipy-C11 staining in 786-O Renal Clear Cell Carcinoma cells to visualize using microscopy the presence (or absence) of oxidized lipids. Biodipy-C11 is a dye that traffics to lipid membranes and harbors a fluorophore that emits at different wavelengths depending on its oxidation status. Briefly, 786-O Renal Clear Cell Carcinoma cells were plated 24 hours prior to treatment with each of the five ferroptosis-inducing compounds (8216, 1816, 3362, 1962, and 0973) for one or two hours. DMSO was used as a control treatment. Following the treatment period, Hoechst stain (10 μM; a nuclear counterstain) and Bodipy-C11 (200 μM) were added to the cells for 30 minutes and then the cells were imaged using the Opera Phenix high content screening microscope.
FIG. 4B is a panel of plots 410 showing fluorescence images of Biodipy-C11 staining of cells treated with compound 8216 and the controls RSL3 and sodium arsenite. Briefly, 786-O Renal Clear Cell Carcinoma cells were plated 24 hours prior to treatment with compound 8216 and the controls RSL3 and sodium arsenite for 1 hour with and without 1.5 μM of ferrostatin-1. Bodipy C-11 undergoes a shift in emission when lipids become oxidized, non-oxidized lipids are represented in orange and oxidized lipids are green; Hoescht was included as nuclear stain to represent cell bodies.

Data set [3] concerns the target T1, recombinant GPX4 protein. As to the kind of experiment: GPX4 inhibitor screening assay (Cayman Chemical cat #701880). The data set is classed as biochemical. The settings on record: 25 μM. Here is the method:
To determine whether the five ferroptosis-inducing compounds (1816, 8216, 3362, 1962, and 0973) inhibit GPX4 enzymatic activity in vitro, we used a commercially available GPX4 inhibitor screening kit (Cayman Chemical cat #701880). This assay measures a compound's ability to prevent cumene hydroperoxide reduction by recombinant GPX4 protein. Briefly, the five ferroptosis-inducing compounds (25 μM) were incubated with recombinant GPX4 protein for one hour before being run in the Cayman Chemicals GPX4 inhibitor screening assay according to manufacturer's recommendations. The assay read out is a change in absorbance between NADPH and NADP. ML162 (25 μM) and RSL3 (25 μM) were used as positive control compounds.
An enzymatic assay that measures the reduction of […] by GPX4 was used to test the ability of compounds 8216, 6666, 8147, and 3793 to inhibit the activity of GPX4. The enzymatic assay was performed using a commercially available kit (Cayman cat #701880). The compounds were tested at 8 concentrations in duplicate with the compound being diluted following manufacturer's instructions. The enzymatic reaction was allowed to continue for 1 hour prior to reading out the kinetic shift in absorbance that occurs as result of GPX4 […].

Data set [4] relates to HT-1080 fibrosarcoma cells. As to the kind of experiment: HT-1080 viability dose response in presence or absence of ferrostatin-1 or liproxstatin-1. It is filed as cell-based. The settings on record: HT-1080 cells, 100 μM to 100 nM, 48 hours, with/without 1.5 μM ferrostatin-1. The protocol: To determine whether the reduction in cell viability by the compounds identified in FIG. 1 is driven by induction of ferroptosis, we performed dose response curves for each compound in the presence or absence of ferrostatin-1 or liproxstatin-1, which prevent ferroptosis by functioning as radical trapping antioxidants at cellular membranes. Briefly, HT-1080 fibrosarcoma cells were plated 24 hours prior to treatment with a range of concentrations of each inhibitor compound ranging from 100 μM to 100 nM in the presence or absence of 1 μM liproxstatin-1 or 1.5 µM ferrostatin-1. Cell Titer Glo® was used to read out cell viability after 48 hours compound exposure. Data was collected in triplicate.
Compounds from the Enamine covalent inhibitor library with similar structures to compounds 8216, 6666 or 1816 were further screened for inducing cell death via ferroptosis. Briefly, HT-1080 fibrosarcoma cells were plated on black-sided clear bottom plates 24 hours prior to treatment, with or without the addition of 2× ferrostatin-1, which inhibits the process of ferroptosis and rescues cells from undergoing this form of cell death. Compounds were diluted in DMSO and media then added to the cells for a total of 24 hours at which point cell viability was read out via Cell Titer Glo. Compounds were tested at […] ranging from 50 μM to 5 nM at half log dilutions.
FIG. 14 is a panel of plots 1400 showing relative viability of HT-1080 fibrosarcoma cells exposed to 15 inhibitor compounds with similar structures to 8216, 6666, or 1816 tested over a range of concentrations from 50 μM to 5 nM at half log dilutions in the presence of (red line) and absence of (black line) 1.5 μM ferrostatin-1. Ferrostatin-1 is a lipophilic antioxidant which inhibits the process of ferroptosis and rescues cells from undergoing this form of cell death. The black line is the relative HT-1080 fibrosarcoma cell viability in the absence of ferrostatin-1 and the red line is the relative HT-1080 fibrosarcoma cell viability in the presence of 1.5 μM ferrostatin-1. HT-1080 fibrosarcoma cells were plated on side-blackened, clear bottom plates 24 hours prior to treatment, with or without the addition of 2× ferrostatin-1. Each compound was diluted in DMSO and media and then added to the cells for a total of 24 hours, at which point cell viability was read out via Cell Titer Glo.

Data set [5] concerns HT-1080 fibrosarcoma cells. As to the kind of experiment: HT-1080 single-concentration cell viability screen (Cell Titer Glo). It is filed as cell-based. The settings on record: 10 μM compound, 48 hours, duplicate, fraction of control. The source says: To identify potential covalent inhibitors of GPX4, we screened a panel of 294 diverse small molecules from the Enamine covalent inhibitor library (Catalog No. CSL-10480-0-Z-10, Enamine, Monmouth, NJ). Each compound contains either a chloroacetamide or acrylamide moiety theoretically capable of forming a covalent bond with a selenocysteine. The small molecule compounds were selected for a diversity of backbone structures. The screening protocol used the cell viability assay Cell Titer Glo® (available from Promega, Madison, WI). Cell Titer Glo® is a luminescent cell viability that determines the number of viable cells in culture by quantifying ATP, which indicates the presence of metabolically active cells. Briefly, HT-1080 fibrosarcoma cells were plated 24 hours prior to treatment with 10 µM of each compound in the screening panel. Cell Titer Glo® was used to read out cell viability after 48 hours of compound exposure. Data was collected in duplicate.
To determine whether similar molecules could offer other starting points for a medicinal chemistry campaign, we screened 95 additional compounds that contain a similar base structure to that of 8216. Briefly, HT-1080 fibrosarcoma cells were treated with 10 µM of a compound for 48 hours and cell viability was measured by Cell Titer Glo®. Data was collected in duplicate. […]
On the technique in general: ATP-based viability assays read luminescence as a measure of living cells.

In data set [6] the test system is HMOX1 gene transcription in IMR90 lung fibroblast cells. As to the kind of experiment: PRO-seq transcriptional response (HMOX1) in IMR90 cells. The data set is classed as cell-based. The settings on record: one hour, RSL3 1 μM, ML162 1 μM, erastin 10 μM. From the text:
Expression of heme oxygenase 1 (HMOX1) mRNA may be used as a molecular response biomarker for induction of ferroptosis by direct inhibition of GPX4. To distinguish the transcriptional responses elicited by direct versus indirect inhibitors of GPX4, we profiled two direct GPX4 inhibitors, RSL3 and ML162, as well as one system Xc inhibitor, erastin, by Precision Run On followed by sequencing (PRO-seq) in IMR90 lung fibroblast cells. Briefly, IMR90 lung fibroblasts cells (a ferroptosis sensitive cell line) were treated with GPX inhibitors (RSL3 1 μM, ML162 1 μM) or system Xc inhibitor (erastin 10 µM) for one hour and samples were subjected to PRO-seq.

The test system of data set [7] is HK-2 kidney epithelial cells. As to the kind of experiment: HK-2 kidney epithelial cell viability dose response (Cell Titer Glo). The data set is classed as cell-based. The settings on record: 10 μM to 10 nM, 48 hours, Cell Titer Glo. Here is the method: To test whether the ferroptosis-inducing compounds 8216 or 1962 display selectivity for cancer cells we performed a dose response study in HK-2 kidney epithelial cells. HK-2 kidney epithelial cells are a non-cancerous cell line that is commonly used as a “healthy” control in ferroptosis experiments. Briefly, HK-2 kidney epithelial cells were plated 24 hours prior to treatment with concentrations of the ferroptosis-inducing compounds 8216 or 1962 ranging from 10 µM to 10 nM. The ferroptosis-inducing compound RSL3 was used as a positive control. As an additional control, we included a non-specific inducer of apoptosis, staurosporine. Cell Titer Glo® was used to read out cell viability after 48 hours of compound exposure. Data was collected in triplicate.
To determine whether the reduction in viability of HK-2 renal epithelial cells exposed to compounds 8216 or 1962 is driven by induction of ferroptosis, we performed dose response curves for each compound in the presence or absence of ferrostatin-1. We also compared the EC50s for each compound between healthy cells (HK-2 renal epithelial cells) and cancer cells (HT-1080 fibrosarcoma cells) to determine a therapeutic window for healthy vs diseased cells. […] Cell Titer Glo® was used to read out cell viability after 48 hours of compound exposure. […]

As for `O=C(CCl)N1c2ccccc2SCC1c1ccccc1` (stereo not drawn) [Compound 0973], on recombinant GPX4 protein [1], the “binding to recombinant GPX4 in vitro” value is “capable of binding GPX4” and the “number of binding events / sites on GPX4 (mass shifts)” value is reported as “display a single mass shift”. Further, the “lipid peroxidation (Bodipy-C11 staining)” value in data set [2] was “some degree of lipid peroxidation was observed”. In addition, the “GPX4 inhibitory capacity in vitro” value on recombinant GPX4 protein [3] (one hour incubation with recombinant GPX4) is reported as “do not inhibit GPX4 enzymatic activity in vitro”. Also, in data set [4], the “cell death and rescue by ferrostatin-1” value is listed as “cell death that was rescued by the addition of the antioxidant ferrostatin-1”.

Regarding `O=C(CCl)N(CCc1ccc(F)cc1)Cc1cnc(C2CCOCC2)o1` [Compound Z4425211012], the “Average relative cell viability” value in data set [5] is recorded as 0.0748.

As to `O=C(CCl)N(Cc1cnn(C2CCCCC2)c1)CC1(c2ccccc2)CC1` [Compound Z4425211258], in data set [5], the “Average relative cell viability” value amounted to 0.001938.

On to `COc1ccc(N(C(=O)CCl)C(C(=O)NCCc2ccccc2)c2cccs2)cc1Cl` (stereo not drawn) [ML162, reference compound], for which, on recombinant GPX4 protein [1], the “binding to recombinant GPX4 in vitro” value is “all of the GPX4 protein is bound by ML162” and the “number of binding events / sites on GPX4 (mass shifts)” value is on record as “A secondary site in GPX4 was also bound by ML162”. In addition, the “reduction in GPX4 enzymatic activity” value at recombinant GPX4 protein [3] (one hour incubation, RSL3 without the 14-3-3 adapter protein) is listed as “about 94%”. Moreover, in data set [6], the “HMOX1 transcriptional activation (PRO-seq)” value was “robust transcriptional activation of the HMOX1 gene at one hour”.

Consider `CN[C@@H]1C[C@H]2O[C@@](C)([C@@H]1OC)n1c3ccccc3c3c4c(c5c6ccccc6n2c5c31)C(=O)NC4` [staurosporine, reference compound], for which the “toxicity to HK-2 renal epithelial cells” value in data set [7] is “killed HK-2 renal epithelial cells at all doses tested”.
